According to patent US20080194585A1, “Fungicidal Pyrazine Derivatives” (priority 2005, published 2008):
Marks after values point to notes of the source that are not given here.

Tests used:
[1] = test system: Puccinia recondita f. sp. tritici; assay: Test K: wheat leaf rust, preventive spray on wheat seedlings; details: 100 = 100% disease control, 0 = no control
Septoria tritici = assay: Test J: wheat leaf blotch, preventive spray on wheat seedlings; type: in vivo; details: 40 ppm (marked *); 100 = 100% disease control, 0 = no control
Text: A dash (-) indicates no test results.

Plasmopara viticola = assay: Test D: grape downy mildew, spray after inoculation of grape seedlings; type: in vivo; details: 100 = 100% disease control, 0 = no control
Text: Upon removal, disease ratings were made. […] A dash (-) indicates no test results.

Septoria nodorum = assay: Test H: wheat glum blotch, preventive spray on wheat seedlings; details: 100 = 100% disease control, 0 = no control
Description: (the causal agent of wheat glum blotch) and incubated in a saturated atmosphere at 20° C. for 48 h, and then moved to a growth chamber at 22° C. for 5 days, after which disease ratings were made.

fusarium graminearium = assay: Test I: wheat head scab, preventive spray on wheat seedlings; details: 100 = 100% disease control, 0 = no control
Description: (the causal agent of wheat head scab) and incubated in a saturated atmosphere at 20° C. for 72 h, and then moved to a growth chamber at 22° C. for 5 days, after which disease ratings were made.

Rhizoctonia oryzae = assay: Test G: turf brown patch, preventive spray on creeping bent grass seedlings; details: 40 ppm (marked *); 100 = 100% disease control, 0 = no control
Description: (the causal agent of turf brown patch) and incubated in a saturated atmosphere at 27° C. for 24 h, and then moved to a growth chamber at 27° C. for 5 days, after which disease ratings were made.

[2] = test system: Erysiphe graminis f. sp. tritici; assay: Test L: wheat powdery mildew, preventive spray on wheat seedlings; details: 40 ppm (marked *); 100 = 100% disease control, 0 = no control
[3] = test system: Colletotrichum orbiculare; assay: Test B: cucumber Colletotrichum anthracnose, preventive spray on cucumber seedlings; details: 40 ppm (marked *); 100 = 100% disease control, 0 = no control
Phytophthora infestans = assay: whole plant or invertebrate; type: in vivo; details: 100 = 100% disease control, 0 = no control
Botrytis cinerea = assay: Test E: tomato botrytis, preventive spray on tomato seedlings; details: 40 ppm (marked *); 100 = 100% disease control, 0 = no control
Pythium aphanidermatum = assay: Test A: bluegrass pythium blight, preventive spray on bluegrass seedlings; details: 100 = 100% disease control, 0 = no control

Cc1ccn(-c2nc(Cl)c(-c3c(F)cc(F)cc3F)n(-c3ccccc3)c2=O)n1 [compound 321]
Test K disease control rating ([1]; 40 ppm (marked *)): 99* % | Test J disease control rating (Septoria tritici): 100* % | Test D disease control rating (Plasmopara viticola; 40 ppm (marked *)): 17* % | Test H disease control rating (Septoria nodorum; 40 ppm (marked *)): 100* % | Test I disease control rating (fusarium graminearium; 40 ppm (marked *)): 82* % | Test G disease control rating (Rhizoctonia oryzae): 70* % | Test L disease control rating [2]: 0* % | Test B disease control rating [3]: 94* % | Test F disease control rating (Phytophthora infestans; 40 ppm (marked *)): 0* % | Test E disease control rating (Botrytis cinerea): 99* % | Test A disease control rating (Pythium aphanidermatum; 40 ppm (marked *)): 0* %

O=c1c(-n2cccn2)nc(Cl)c(-c2ccc(F)cc2Cl)n1-c1ccccc1 [compound 322]
Test K disease control rating ([1]; 40 ppm (marked *)): 92* % | Test J disease control rating (Septoria tritici): 100* % | Test D disease control rating (Plasmopara viticola; 40 ppm (marked *)): 0* % | Test H disease control rating (Septoria nodorum; 40 ppm (marked *)): 98* % | Test I disease control rating (fusarium graminearium; 40 ppm (marked *)): 0* % | Test G disease control rating (Rhizoctonia oryzae): 16* % | Test L disease control rating [2]: 0* % | Test B disease control rating [3]: 63* % | Test F disease control rating (Phytophthora infestans; 40 ppm (marked *)): 0* % | Test E disease control rating (Botrytis cinerea): 99* % | Test A disease control rating (Pythium aphanidermatum; 40 ppm (marked *)): 0* %

Cc1ccn(-c2nc(Cl)c(-c3ccc(F)cc3Cl)n(-c3ccccc3)c2=O)n1 [compound 323]
Test K disease control rating ([1]; 40 ppm (marked *)): 96* % | Test J disease control rating (Septoria tritici): 100* % | Test D disease control rating (Plasmopara viticola; 40 ppm (marked *)): 0* % | Test H disease control rating (Septoria nodorum; 40 ppm (marked *)): 97* % | Test I disease control rating (fusarium graminearium; 40 ppm (marked *)): 0* % | Test G disease control rating (Rhizoctonia oryzae): 16* % | Test L disease control rating [2]: 0* % | Test B disease control rating [3]: 78* % | Test F disease control rating (Phytophthora infestans; 40 ppm (marked *)): 0* % | Test E disease control rating (Botrytis cinerea): 99* % | Test A disease control rating (Pythium aphanidermatum; 40 ppm (marked *)): 0* %

CC(C)Cn1c(-c2c(F)cccc2F)c(Cl)nc(-n2cccc2C#N)c1=O [compound 325]
Test K disease control rating ([1]; 200 ppm): 0% | Test J disease control rating (Septoria tritici): 7* % | Test D disease control rating (Plasmopara viticola; 40 ppm (marked *)): 0* % | Test H disease control rating (Septoria nodorum; 200 ppm): 0% | Test I disease control rating (fusarium graminearium; 40 ppm (marked *)): 0* % | Test G disease control rating (Rhizoctonia oryzae): 0* % | Test L disease control rating [2]: 0* % | Test B disease control rating [3]: 0* % | Test F disease control rating (Phytophthora infestans; 40 ppm (marked *)): 0* % | Test E disease control rating (Botrytis cinerea): 0* % | Test A disease control rating (Pythium aphanidermatum; 40 ppm (marked *)): 0* %

Cc1cccc(-n2c(-c3c(F)cccc3F)c(Cl)nc(-n3cccn3)c2=O)c1 [compound 326]
Test K disease control rating ([1]; 40 ppm (marked *)): 97* % | Test J disease control rating (Septoria tritici): 97* % | Test D disease control rating (Plasmopara viticola; 40 ppm (marked *)): 0* % | Test H disease control rating (Septoria nodorum; 40 ppm (marked *)): 100* % | Test I disease control rating (fusarium graminearium; 40 ppm (marked *)): 0* % | Test G disease control rating (Rhizoctonia oryzae): 16* % | Test L disease control rating [2]: 94* % | Test B disease control rating [3]: 0* % | Test F disease control rating (Phytophthora infestans; 40 ppm (marked *)): 0* % | Test E disease control rating (Botrytis cinerea): 99* % | Test A disease control rating (Pythium aphanidermatum; 40 ppm (marked *)): 0* %

Cc1cccc(-n2c(-c3c(F)cccc3F)c(Cl)nc(-n3ccc(C)n3)c2=O)c1 [compound 327]
Test K disease control rating ([1]; 40 ppm (marked *)): 95* % | Test J disease control rating (Septoria tritici): 97* % | Test D disease control rating (Plasmopara viticola; 40 ppm (marked *)): 0* % | Test H disease control rating (Septoria nodorum; 40 ppm (marked *)): 98* % | Test I disease control rating (fusarium graminearium; 40 ppm (marked *)): 0* % | Test G disease control rating (Rhizoctonia oryzae): 0* % | Test L disease control rating [2]: 78* % | Test B disease control rating [3]: 37* % | Test F disease control rating (Phytophthora infestans; 40 ppm (marked *)): 0* % | Test E disease control rating (Botrytis cinerea): 99* % | Test A disease control rating (Pythium aphanidermatum; 40 ppm (marked *)): 93* %

Cc1ccccc1-n1c(-c2c(F)cccc2F)c(Cl)nc(-n2cccn2)c1=O [compound 328]
Test K disease control rating ([1]; 40 ppm (marked *)): 98* % | Test J disease control rating (Septoria tritici): 100* % | Test D disease control rating (Plasmopara viticola; 40 ppm (marked *)): 0* % | Test H disease control rating (Septoria nodorum; 40 ppm (marked *)): 100* % | Test I disease control rating (fusarium graminearium; 40 ppm (marked *)): 31* % | Test G disease control rating (Rhizoctonia oryzae): 87* % | Test L disease control rating [2]: 88* % | Test B disease control rating [3]: 0* % | Test F disease control rating (Phytophthora infestans; 40 ppm (marked *)): 0* % | Test E disease control rating (Botrytis cinerea): 99* % | Test A disease control rating (Pythium aphanidermatum; 40 ppm (marked *)): 0* %

Cc1ccn(-c2nc(Cl)c(-c3c(F)cccc3F)n(-c3ccccc3C)c2=O)n1 [compound 329]
Test K disease control rating ([1]; 40 ppm (marked *)): 96* % | Test J disease control rating (Septoria tritici): 100* % | Test D disease control rating (Plasmopara viticola; 40 ppm (marked *)): 0* % | Test H disease control rating (Septoria nodorum; 40 ppm (marked *)): 100* % | Test I disease control rating (fusarium graminearium; 40 ppm (marked *)): 0* % | Test G disease control rating (Rhizoctonia oryzae): 26* % | Test L disease control rating [2]: 76* % | Test B disease control rating [3]: 31* % | Test F disease control rating (Phytophthora infestans; 40 ppm (marked *)): 0* % | Test E disease control rating (Botrytis cinerea): 99* % | Test A disease control rating (Pythium aphanidermatum; 40 ppm (marked *)): 83* %

O=c1c(-n2cccn2)nc(Cl)c(-c2c(F)cc(F)cc2F)n1Cc1cccc(Br)c1 [compound 344]
Test K disease control rating ([1]; 40 ppm (marked *)): 99* % | Test J disease control rating (Septoria tritici): 100* % | Test D disease control rating (Plasmopara viticola; 200 ppm): 0% | Test H disease control rating (Septoria nodorum; 40 ppm (marked *)): 99* % | Test I disease control rating (fusarium graminearium; 200 ppm): 93% | Test G disease control rating (Rhizoctonia oryzae): 16* % | Test L disease control rating [2]: 0* % | Test B disease control rating [3]: 0* % | Test F disease control rating (Phytophthora infestans; 200 ppm): 0% | Test E disease control rating (Botrytis cinerea): 92* % | Test A disease control rating (Pythium aphanidermatum; 200 ppm): 0%

O=c1c(-n2cccn2)nc(Cl)c(-c2c(F)cc(F)cc2F)n1Cc1ccccc1Br [compound 345]
Test K disease control rating ([1]; 40 ppm (marked *)): 100* % | Test J disease control rating (Septoria tritici): 100* % | Test D disease control rating (Plasmopara viticola; 200 ppm): 0% | Test H disease control rating (Septoria nodorum; 40 ppm (marked *)): 99* % | Test I disease control rating (fusarium graminearium; 200 ppm): 91% | Test G disease control rating (Rhizoctonia oryzae): 31* % | Test L disease control rating [2]: 88* % | Test B disease control rating [3]: 88* % | Test F disease control rating (Phytophthora infestans; 200 ppm): 0% | Test E disease control rating (Botrytis cinerea): 98* % | Test A disease control rating (Pythium aphanidermatum; 200 ppm): 0%

O=c1c(-n2cccn2)nc(Cl)c(-c2c(F)cc(F)cc2F)n1Cc1ccc(C(F)(F)F)cc1 [compound 346]
Test K disease control rating ([1]; 40 ppm (marked *)): 74* % | Test J disease control rating (Septoria tritici): 13* % | Test D disease control rating (Plasmopara viticola; 200 ppm): 0% | Test H disease control rating (Septoria nodorum; 40 ppm (marked *)): 0* % | Test I disease control rating (fusarium graminearium; 200 ppm): 0% | Test G disease control rating (Rhizoctonia oryzae): 0* % | Test L disease control rating [2]: 0* % | Test B disease control rating [3]: 0* % | Test F disease control rating (Phytophthora infestans; 200 ppm): 0% | Test E disease control rating (Botrytis cinerea): 0* % | Test A disease control rating (Pythium aphanidermatum; 200 ppm): 0%

O=c1c(-n2cccn2)nc(Cl)c(-c2c(F)cc(F)cc2F)n1Cc1cccc(C(F)(F)F)c1 [compound 347]
Test K disease control rating ([1]; 40 ppm (marked *)): 93* % | Test J disease control rating (Septoria tritici): 83* % | Test D disease control rating (Plasmopara viticola; 200 ppm): 0% | Test H disease control rating (Septoria nodorum; 40 ppm (marked *)): 0* % | Test I disease control rating (fusarium graminearium; 200 ppm): 0% | Test G disease control rating (Rhizoctonia oryzae): 0* % | Test L disease control rating [2]: 25* % | Test B disease control rating [3]: 0* % | Test F disease control rating (Phytophthora infestans; 200 ppm): 0% | Test E disease control rating (Botrytis cinerea): 0* % | Test A disease control rating (Pythium aphanidermatum; 200 ppm): 0%

O=c1c(-n2cccn2)nc(Cl)c(-c2c(F)cc(F)cc2F)n1Cc1ccccc1C(F)(F)F [compound 348]
Test K disease control rating ([1]; 40 ppm (marked *)): 97* % | Test J disease control rating (Septoria tritici): 99* % | Test D disease control rating (Plasmopara viticola; 200 ppm): 0% | Test H disease control rating (Septoria nodorum; 40 ppm (marked *)): 64* % | Test I disease control rating (fusarium graminearium; 200 ppm): 0% | Test G disease control rating (Rhizoctonia oryzae): 16* % | Test L disease control rating [2]: 44* % | Test B disease control rating [3]: 0* % | Test F disease control rating (Phytophthora infestans; 200 ppm): 0% | Test E disease control rating (Botrytis cinerea): 90* % | Test A disease control rating (Pythium aphanidermatum; 200 ppm): 0%
